Results published in ChEMBL document CHEMBL5724914, “Linking interpersonal differences in gut microbiota composition and drug biotransformation activity” (2024).

Legend:
Conditions in all cases: 2 µM
[1] = (§1) The drug is tested on Z-028 corresponding to mouse gut metagenome with ENA study accession number: PRJEB37062 and ENA sample accession number: ERS12561827 for biotransformation under anaerobic condition. The drug concentrations were measured over 9 timepoints collected between 0 and 24 hours of incubation by liquid-chromatography-coupled mass spectrometry (LC–MS)
[2] = as §1, with “Z-027” for “Z-028”, “to” for “to mouse gut”, “ERS12561826” for “ERS12561827”
[3] = as §1, with “Z-026” for “Z-028”, “to” for “to mouse gut”, “ERS12561825” for “ERS12561827”
[4] = as §1, with “Z-024” for “Z-028”, “pig” for “mouse”, “ERS12561823” for “ERS12561827”
[5] = as §1, with “Z-023” for “Z-028”, “to” for “to mouse gut”, “ERS12561822” for “ERS12561827”
[6] = as §1, with “Z-022” for “Z-028”, “ERS12561821” for “ERS12561827”
[7] = as §1, with “Z-021” for “Z-028”, “to” for “to mouse gut”, “ERS12561820” for “ERS12561827”
[8] = as §1, with “Z-012” for “Z-028”, “to” for “to mouse gut”, “ERS12561812” for “ERS12561827”
[9] = as §1, with “Z-011” for “Z-028”, “ERS12561811” for “ERS12561827”
[10] = as §1, with “Z-010” for “Z-028”, “to” for “to mouse gut”, “ERS12561810” for “ERS12561827”
[11] = as §1, with “Z-009” for “Z-028”, “pig” for “mouse”, “ERS12561809” for “ERS12561827”
[12] = as §1, with “Z-008” for “Z-028”, “to” for “to mouse gut”, “ERS12561808” for “ERS12561827”
[13] = as §1, with “Z-007” for “Z-028”, “rat” for “mouse”, “ERS12561807” for “ERS12561827”
[14] = as §1, with “Z-006” for “Z-028”, “ERS12561806” for “ERS12561827”
[15] = as §1, with “Z-005” for “Z-028”, “to” for “to mouse gut”, “ERS12561805” for “ERS12561827”
[16] = as §1, with “Z-004” for “Z-028”, “to” for “to mouse gut”, “ERS12561804” for “ERS12561827”
[17] = as §1, with “Z-003” for “Z-028”, “pig” for “mouse”, “ERS12561803” for “ERS12561827”
[18] = as §1, with “Z-002” for “Z-028”, “rabbit” for “mouse”, “ERS12561802” for “ERS12561827”
[19] = as §1, with “Z-001” for “Z-028”, “ERS12561801” for “ERS12561827”
[20] = as §1, with “Z-030” for “Z-028”, “ERS12561829” for “ERS12561827”
[21] = as §1, with “Z-029” for “Z-028”, “rat” for “mouse”, “ERS12561828” for “ERS12561827”
[22] = as §1, with “Z-025” for “Z-028”, “rabbit” for “mouse”, “ERS12561824” for “ERS12561827”
[23] = as §1, with “Z-020” for “Z-028”, “rabbit” for “mouse”, “ERS12561819” for “ERS12561827”
[24] = as §1, with “Z-019” for “Z-028”, “rat” for “mouse”, “ERS12561818” for “ERS12561827”
[25] = as §1, with “Z-018” for “Z-028”, “pig” for “mouse”, “ERS12561817” for “ERS12561827”
[26] = as §1, with “Z-017” for “Z-028”, “ERS12561816” for “ERS12561827”
[27] = as §1, with “Z-016” for “Z-028”, “ERS12561815” for “ERS12561827”
[28] = as §1, with “Z-014” for “Z-028”, “rat” for “mouse”, “ERS12561814” for “ERS12561827”
[29] = as §1, with “Z-013” for “Z-028”, “rabbit” for “mouse”, “ERS12561813” for “ERS12561827”
Note: call rule not given here.

Structure (SMILES)	Bacterial Biotransformation [1]	Bacterial Biotransformation [2]	Bacterial Biotransformation [3]	Bacterial Biotransformation [4]	Bacterial Biotransformation [5]	Bacterial Biotransformation [6]	Bacterial Biotransformation [7]	Bacterial Biotransformation [8]	Bacterial Biotransformation [9]	Bacterial Biotransformation [10]	Bacterial Biotransformation [11]	Bacterial Biotransformation [12]	Bacterial Biotransformation [13]	Bacterial Biotransformation [14]	Bacterial Biotransformation [15]	Bacterial Biotransformation [16]	Bacterial Biotransformation [17]	Bacterial Biotransformation [18]	Bacterial Biotransformation [19]	Bacterial Biotransformation [20]	further results
C[C@H]1C[C@H]2[C@@H]3CCC4=CC(=O)C=C[C@]4(C)[C@@]3(F)[C@@H](O)C[C@]2(C)[C@@]1(O)C(=O)CO [BETAMETHASONE]	Compound NOT metabolized	Compound NOT metabolized	Compound metabolized	Compound metabolized	Compound metabolized	Compound metabolized	Compound metabolized	Compound metabolized	Compound NOT metabolized	Compound metabolized	Compound metabolized	Compound NOT metabolized	Compound NOT metabolized	Compound NOT metabolized	Compound NOT metabolized	Compound metabolized	Compound metabolized	Compound metabolized	Compound NOT metabolized	–	–
CC(=O)SCC(Cc1ccccc1)C(=O)NCC(=O)OCc1ccccc1 (stereo unspecified) [RACECADOTRIL]	Compound metabolized	Compound NOT metabolized	Compound metabolized	Compound metabolized	Compound metabolized	Compound metabolized	Compound metabolized	Compound metabolized	Compound metabolized	Compound metabolized	Compound metabolized	Compound metabolized	Compound metabolized	Compound metabolized	Compound metabolized	Compound metabolized	Compound metabolized	Compound metabolized	Compound metabolized	Compound metabolized	Bacterial Biotransformation [21]: Compound metabolized; Bacterial Biotransformation [22]: Compound metabolized; Bacterial Biotransformation [23]: Compound metabolized; Bacterial Biotransformation [24]: Compound metabolized; Bacterial Biotransformation [25]: Compound metabolized; Bacterial Biotransformation [26]: Compound metabolized; Bacterial Biotransformation [27]: Compound metabolized; Bacterial Biotransformation [28]: Compound metabolized; Bacterial Biotransformation [29]: Compound metabolized
CN1CCCCC1CCN1c2ccccc2Sc2ccc([S+](C)[O-])cc21.O=S(=O)(O)c1ccccc1 (stereo unspecified) [MESORIDAZINE BESYLATE]	Compound NOT metabolized	Compound NOT metabolized	Compound NOT metabolized	Compound NOT metabolized	Compound NOT metabolized	Compound NOT metabolized	Compound NOT metabolized	Compound metabolized	Compound NOT metabolized	Compound metabolized	Compound metabolized	Compound NOT metabolized	Compound NOT metabolized	Compound NOT metabolized	Compound metabolized	Compound metabolized	Compound metabolized	Compound metabolized	Compound NOT metabolized	Compound NOT metabolized	Bacterial Biotransformation [21]: Compound NOT metabolized; Bacterial Biotransformation [22]: Compound metabolized; Bacterial Biotransformation [27]: Compound metabolized; Bacterial Biotransformation [29]: Compound NOT metabolized
Cc1ccc(NC(=O)c2ccc(CN3CCN(C)CC3)cc2)cc1Nc1nccc(-c2cccnc2)n1 [IMATINIB]	Compound NOT metabolized	Compound NOT metabolized	Compound NOT metabolized	Compound NOT metabolized	–	Compound NOT metabolized	–	Compound NOT metabolized	Compound NOT metabolized	Compound NOT metabolized	Compound NOT metabolized	Compound NOT metabolized	Compound NOT metabolized	Compound NOT metabolized	Compound NOT metabolized	Compound NOT metabolized	Compound NOT metabolized	Compound NOT metabolized	Compound NOT metabolized	Compound NOT metabolized	Bacterial Biotransformation [21]: Compound NOT metabolized; Bacterial Biotransformation [22]: Compound NOT metabolized; Bacterial Biotransformation [23]: Compound NOT metabolized; Bacterial Biotransformation [25]: Compound NOT metabolized; Bacterial Biotransformation [26]: Compound NOT metabolized; Bacterial Biotransformation [27]: Compound NOT metabolized; Bacterial Biotransformation [28]: Compound NOT metabolized; Bacterial Biotransformation [29]: Compound NOT metabolized
CN1CCN(CCCN2c3ccccc3Sc3ccc(Cl)cc32)CC1.O=S(=O)(O)CCS(=O)(=O)O [PROCHLORPERAZINE EDISYLATE]	–	–	Compound metabolized	–	Compound metabolized	–	Compound NOT metabolized	Compound metabolized	–	–	Compound metabolized	Compound NOT metabolized	–	Compound NOT metabolized	–	–	–	Compound NOT metabolized	–	–	–
